Biological target: T1, hTLR7 (Homo sapiens, UniProt Q9NYK1)
T1 construct: expressed in transfected cells; host or cells: HEK-Blue hTLR7 reporter cell line
T1 sequence (Q9NYK1 27-1049): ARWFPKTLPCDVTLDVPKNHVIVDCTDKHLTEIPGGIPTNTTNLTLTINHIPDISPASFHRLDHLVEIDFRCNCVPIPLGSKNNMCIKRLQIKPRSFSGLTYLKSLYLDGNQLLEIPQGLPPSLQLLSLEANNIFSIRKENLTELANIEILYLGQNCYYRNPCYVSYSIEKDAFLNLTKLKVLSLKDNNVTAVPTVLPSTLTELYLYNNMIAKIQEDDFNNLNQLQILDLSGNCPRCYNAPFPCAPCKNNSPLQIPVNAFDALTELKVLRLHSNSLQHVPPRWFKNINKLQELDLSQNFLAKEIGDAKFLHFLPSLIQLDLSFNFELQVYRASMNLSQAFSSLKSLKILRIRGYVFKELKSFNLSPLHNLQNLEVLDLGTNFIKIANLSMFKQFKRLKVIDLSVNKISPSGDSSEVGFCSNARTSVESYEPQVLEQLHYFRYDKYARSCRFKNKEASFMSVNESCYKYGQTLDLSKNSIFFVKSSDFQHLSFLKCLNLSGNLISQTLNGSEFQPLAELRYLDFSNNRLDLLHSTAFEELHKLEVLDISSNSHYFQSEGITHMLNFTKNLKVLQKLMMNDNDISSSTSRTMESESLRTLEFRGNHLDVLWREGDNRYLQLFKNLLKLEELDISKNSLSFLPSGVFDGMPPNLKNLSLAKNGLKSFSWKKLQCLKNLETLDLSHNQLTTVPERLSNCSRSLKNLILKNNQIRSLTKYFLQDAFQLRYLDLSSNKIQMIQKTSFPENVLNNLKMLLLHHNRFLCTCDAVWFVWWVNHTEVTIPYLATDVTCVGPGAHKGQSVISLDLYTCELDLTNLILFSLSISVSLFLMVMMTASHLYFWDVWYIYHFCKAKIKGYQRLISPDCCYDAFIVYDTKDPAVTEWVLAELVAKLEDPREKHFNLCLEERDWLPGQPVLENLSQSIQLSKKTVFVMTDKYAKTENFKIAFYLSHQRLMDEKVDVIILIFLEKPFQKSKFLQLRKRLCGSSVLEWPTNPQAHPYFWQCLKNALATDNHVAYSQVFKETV
Test: HEK-Blue hTLR7 reporter assay (NF-kB-induced SEAP, Quanti-Blue)
Assay type: cell-based
Details: Table 19, TLR7, drug-linkers with PEG shielding; read-out: EC50
Description: HEK-Blue™ hTLR7 cells were incubated in HEK-Blue™ Detection medium and stimulated with increasing concentrations of TLR7 or TLR8 or TLR7/8 agonists. […] The EC50 was determined from dose-response curve using Prism Software.

SMILES | EC50
CCCCOc1nc(N)c2[nH]c(=O)n(Cc3ccc(CN4CCC(CCNC(=O)[C@@H](N)Cn5cc(CON)nn5)CC4)cc3)c2n1 [AXC-932, (S)-2-amino-N-(2-(1-(4-((6-amino-2-butoxy-8-oxo-7,8-dihydro-9H-purin-9-yl)methyl)benzyl)piperidin-4-yl)ethyl)-3-(4-((aminooxy)methyl)-1H-1,2,3-triazol-1-yl)propanamide] | 156 nM
CCCCOc1nc(N)c2[nH]c(=O)n(Cc3ccc(CN4CCC(CCNC(=O)[C@@H](N)CO)CC4)cc3)c2n1 [AXC-933, (S)-2-amino-N-(2-(1-(4-((6-amino-2-butoxy-8-oxo-7,8-dihydro-9H-purin-9-yl)methyl)benzyl)piperidin-4-yl)ethyl)-3-hydroxypropanamide] | 40 nM
CCCCOc1nc(N)c2[nH]c(=O)n(Cc3ccc(CN4CCC(CCNC(=O)[C@@H](N)Cc5ccc(O)cc5)CC4)cc3)c2n1 [AXC-934, (S)-2-amino-N-(2-(1-(4-((6-amino-2-butoxy-8-oxo-7,8-dihydro-9H-purin-9-yl)methyl)benzyl)piperidin-4-yl)ethyl)-3-(4-hydroxyphenyl)propanamide] | 10.3 nM
CCCCOc1nc(N)c2[nH]c(=O)n(Cc3ccc(CN4CCC(CCNC(=O)[C@@H](N)CCCCn5cc(CON)nn5)CC4)cc3)c2n1 [AXC-935, (S)-2-amino-N-(2-(1-(4-((6-amino-2-butoxy-8-oxo-7,8-dihydro-9H-purin-9-yl)methyl)benzyl)piperidin-4-yl)ethyl)-6-(4-((aminooxy)methyl)-1H-1,2,3-triazol-1-yl)hexanamide] | 40 nM
CCCCOc1nc(N)c2[nH]c(=O)n(Cc3ccc(CN4CCC(CCNC(=O)[C@H](CCCCNC(=O)CON)NC(=O)CCCC(=O)NCCOCCOCCOCCOCCOCCOCCOCCOCCOCCOCCOCCOCCOCCOCCOCCOCCOCCOCCOCCOCCOCCOCCOCCOCCOCCOCCOCCOCCOCCOCCOCCOCCOCCOCCOCCOCCOCCOCCOCCOCCOCCOCCOCCOCCOCCOCCOCCOC)CC4)cc3)c2n1 [AXC-936, (S)-N1-(1-((2-(1-(4-((6-amino-2-butoxy-8-oxo-7,8-dihydro-9H-purin-9-yl)methyl)benzyl)piperidin-4-yl)ethyl)amino)-6-(2-(aminooxy)acetamido)-1-oxohexan-2-yl)-N5-(PEG48)-glutaramide] | 764 nM
CCCCOc1nc(N)c2[nH]c(=O)n(Cc3ccc(CN4CCC(CCNC(=O)[C@H](CCCCNC(=O)CON)NC(=O)CCOCCOCCOCCOCCOCCOCCOCCOC)CC4)cc3)c2n1 [AXC-937, (S)-2-PEG8-N-(2-(1-(4-((6-amino-2-butoxy-8-oxo-7,8-dihydro-9H-purin-9-yl)methyl)benzyl)piperidin-4-yl)ethyl)-6-(2-(aminooxy)acetamido)hexanamide] | 456 nM
CCCCOc1nc(N)c2[nH]c(=O)n(Cc3ccc(CN4CCC(CCNC(=O)[C@H](CCCCNC(=O)CON)NC(=O)CCCC(=O)NCCOCCOCCOCCOCCC(=O)NC(COCCC(=O)NCCOCCOCCOCCOC)(COCCC(=O)NCCOCCOCCOCCOC)COCCC(=O)NCCOCCOCCOCCOC)CC4)cc3)c2n1 [AXC-938, (S)-N1-(1-((2-(1-(4-((6-amino-2-butoxy-8-oxo-7,8-dihydro-9H-purin-9-yl)methyl)benzyl)piperidin-4-yl)ethyl)amino)-6-(2-(aminooxy)acetamido)-1-oxohexan-2-yl)-N5-mPEG4-(PEG4)3-glutaramide] | 644 nM
CCCCOc1nc(N)c2[nH]c(=O)n(Cc3ccc(CN4CCC(CCNC(=O)[C@H](CCCCNC(=O)CON)NC(=O)CCOCCOCCOCCOCCOCCOCCOCCOCCOCCOCCOCCOC)CC4)cc3)c2n1 [AXC-940, (S)—N-(2-(1-(4-((6-amino-2-butoxy-8-oxo-7,8-dihydro-9H-purin-9-yl)methyl)benzyl)piperidin-4-yl)ethyl)-6-(2-(aminooxy)acetamido)-2-PEG12-amidohexanamide] | 644 nM
